These results are taken from ChEMBL document CHEMBL1201862, “PubChem BioAssay data set” (2004).

Common to all, as to assay: growth of human tumour cells (NCI), 48 h
Assay [1] concerns OVCAR-5.
For assay [2], the system named is NCI-H522.
Assay [3] has as its system CCRF-CEM.
In assay [4] the test system is PC-3.
Assay [5] has as its system HT-29.
For assay [6], the system named is Hs-578T.
Assay [7] deals with SW-620.
The test system of assay [8] is RPMI-8226.
Assay [9] deals with NCI-H226.
Assay [10] relates to COLO 205.
For assay [11], the system named is SK-MEL-28.
The subject of assay [12] is A498.
For assay [13], the system named is MOLT-4.
Assay [14] deals with SK-MEL-2.
Assay [15] deals with Malme-3M.
The subject of assay [16] is HOP-62.
The subject of assay [17] is SNB-75.
Assay [18] concerns HOP-92.
Assay [19] relates to MCF7.
The test system of assay [20] is UO-31.

SMILES strings stand for the structures.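 How tested: cells in 96-well plates exposed to compound for 48 hours at five concentrations. The concentration for 50% growth inhibition is given as GI50.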 Activity calls are given as the source filed them. Rule as the data show it: active = GI50 up to about 1.1 µM and inactive = higher.

On to `FC(F)(F)c1nc2nc(Cl)c(Cl)nc2n1CCCN1CCOCC1`, for which the GI50 is > 100 µM (inactive) in [1]; 29.4 µM (inactive) in assay [2]; 24.7 µM (inactive) in [3]; 61.2 µM (inactive) in [4]; 66.8 µM (inactive) in [5]; 33.7 µM (inactive) in assay [6]. The GI50 is 42.9 µM (inactive) in assay [7]; 23.4 µM (inactive) in [8]; > 100 µM (inactive) in assay [9]; 54.6 µM (inactive) in assay [10]; 33.7 µM (inactive) in assay [11]; 97.5 µM (inactive) in assay [12]. Also, the GI50 in assay [13] was 13 µM (inactive); in [14], 37.9 µM (inactive); in [15], 56 µM (inactive); in assay [16], > 100 µM (inactive); in assay [17] it was 79.3 µM (inactive); in [18] it was 32 µM (inactive). For the same molecule, the GI50 in assay [19] was 53.1 µM (inactive).
In the case of `CC(=O)c1ccc2c(c1)CC1(C2)Cc2cc3c(cc2C1)C(=O)CC3` (stereo unspecified), the GI50 in [1] was 6.75 µM (inactive); in assay [2] it was 1.93 µM (inactive); in assay [3], 0.65 µM (active); in assay [4], 3.13 µM (inactive); in assay [5] it was 1.07 µM (active); in assay [6], 5.73 µM (inactive). The GI50 in assay [7] is 0.681 µM (active); in [8], 0.345 µM (active); in assay [9], 0.31 µM (active); in assay [10], 0.344 µM (active); in [11], 3.55 µM (inactive); in assay [12], 0.401 µM (active). In addition, the GI50 is 0.356 µM (active) in [14]; 1.35 µM (inactive) in assay [15]; 2.67 µM (inactive) in assay [16]; 9.53 µM (inactive) in assay [20]; 32 µM (inactive) in assay [17]; 4.21 µM (inactive) in [18]. Moreover, in [19], the GI50 was 0.429 µM (active).
Consider `O=C(CC(C(=O)O)N1CCOCC1)c1ccccc1` (stereo unspecified), for which the GI50 in assay [1] is 22.3 µM (inactive); in assay [2], > 100 µM (inactive); in assay [3], 3.37 µM (inactive); in assay [4], 16.5 µM (inactive); in assay [5], 17.1 µM (inactive); in assay [6], 34.1 µM (inactive). Further, the GI50 is 19.8 µM (inactive) in assay [7]; 12.7 µM (inactive) in assay [8]; > 100 µM (inactive) in [9]; 21.1 µM (inactive) in assay [10]; 19.5 µM (inactive) in assay [11]; 25.1 µM (inactive) in assay [12]. For the same molecule, the GI50 in [13] was 15.2 µM (inactive); in [14], 19.1 µM (inactive); in assay [15], 18.8 µM (inactive); in [16], 27.4 µM (inactive); in assay [17], 31 µM (inactive); in [18], 20.4 µM (inactive). Also, in [19], the GI50 is 15.7 µM (inactive).
Consider `Nc1[nH]c(Nc2ccc(Cl)c(Cl)c2)nc2ncnc1-2`, for which the GI50 is 25.5 µM (inactive) in [1]; 15.3 µM (inactive) in assay [2]; 16.1 µM (inactive) in [3]; 12 µM (inactive) in [4]; 14.7 µM (inactive) in assay [5]; 5.87 µM (inactive) in assay [6]. For the same molecule, the GI50 in assay [7] is 18.1 µM (inactive); in assay [8], 14.5 µM (inactive); in assay [9], 20.6 µM (inactive); in assay [10] it was 20.7 µM (inactive); in assay [12], 6.87 µM (inactive); in assay [13], 11.7 µM (inactive). Besides, the GI50 was 17.5 µM (inactive) in assay [14]; 18.2 µM (inactive) in assay [15]; 12.9 µM (inactive) in [16]; 8.73 µM (inactive) in assay [20]; 8.36 µM (inactive) in [17]; 16.6 µM (inactive) in assay [18]. Also, the GI50 in assay [19] is 14.6 µM (inactive).
